# Results: patent US20090275727A1, “Peptide turn mimetics” (MIMETICA PTY LIMITED, priority 1998, published 2009)
# Read-outs that look alike come from different tables or passages of the source. Where a SMILES comes first, the peptide text is derived from it.
# Legend:
# [1] = Solubility in water noted when preparing the NMR sample; type: physicochemical; conditions: NMR run in 1:9 d3-TFE:H2O instead
# Description: To a solution of Ac-GY(tBu)LLG-OMe 229 (58 mg, 0.09 mmol) in dichloromethane (2 mL) was added TFA (2 mL) and the solution stirred at rt for 1 h. The volatiles were removed under reduced pressure, and the residue dissolved in acetonitrile (1 mL) and water (1 mL). This solution was purified by preparative HPLC, to give the purified peptide 230 (12.6 mg) as a white solid. [M+H]^+=578.8; Analytical HPLC (0-40% B over 40 min, mL/min, 214 nm): tR=25.51 min; ^1H NMR, 600 MHz, 1:9 d3-TFE:H2O. Consistent with structure.
# [2] = Variable temperature CD, thermal denaturation of secondary structure; type: physicochemical
# Description: CD experiments were performed on a Jasco Model J-810 spectropolarimeter, which was routinely calibrated with (1S)-(+)-10-camphorsulfonic acid at a concentration of 0.06% (w/v). Experiments were performed at 25° C. using a 0.1 cm cell, a scan speed of 10 nm/min from 260 to 180 nm, with a resolution of 1 nm and a response time of 0.25 s. The spectra were averaged over 5 scans, baseline subtracted from the corresponding blank conditions, and smoothed using the Savitsky-Golay smoothing algorithm (Savitsky, A. and Golay, M. J. E., 1964, Anal. Chem, 36, 1627-1639) to reduce noise. The samples were dissolved in 10 mM phosphate buffer, measured as pH 7.4, and when required the appropriate volume of TFE was added to adjust to 30% TFE. The concentration of the samples of peptides incorporating Helix Mimetic A (galanin 1-16 analogs) were determined using the Beer-Lambert Law by measuring the absorbance of the samples at 280 nm and using a molar extinction co-efficient of ε280=6620 M^−1cm^−1 (ε280 of Galanin 1-30, contains same number of Trp and Tyr as Galanin 1-16). The concentration of the samples of peptides incorporating Helix Mimetic B (Temporin A analogs) samples and the pentapeptide 13-membered ring Helix Mimetic A and B samples were determined by quantitative RP-HPLC against a standard of known concentration. All samples were between 40-200 μM, and CD spectra were recorded at a range of concentrations to check that sample aggregation was not occurring. Raw CD data was recorded in raw ellipticity units and converted to mean ellipticity per mole using the equation [θ]=θ/(10×c×l), where c is the sample concentration (M) and l is the cell path length (cm). Data was not converted to mean peptide molar ellipticity per residue as for compounds containing the covalent ethyl-bridge hydrogen bond replacement it is unclear how many “natural” peptide units to count in these calculations. Variable temperature CD experiments were carried using a CDF-426/L Peltier type CD/Fluorescence simultaneous measurement attachment, and samples were equilibrated for 10 min once the desired temperature was reached.
# CD spectroscopy (as outlined in Example K) was conducted on the Galanin(1-16) reference linear peptide 231 and the Galanin(1-16) helix mimetics 232a and 232b in 10 mM phosphate buffer (pH 7.4) and in 10 mM phosphate buffer with 30% TFE added (see FIG. 8). […] The CD spectra of […] in both buffer and buffer with TFE. […] Further CD experiments examined the thermal denaturation secondary structure stability of Gal(1-16) 231 and (S)-Gal(1-16) helix mimetic 232b were investigated by thermal denaturation experiments (FIG. 9). […]
# [3] = Rat plasma stability of galanin peptides (LC/MS); type: in vitro ADME; conditions: for remaining at 4 h, 500 ng/mL / remaining at 2 min, 500 ng/mL: male, Sprague Dawley
# Description: Rat plasma was obtained freshly from male Sprague Dawley rats. The stock solutions for the samples Galanin(1-16) Linear Reference Peptide 231, Galanin(1-16) Analog Incorporating (R)-Helix Pentapeptide Mimetic A 232a and Galanin(1-16) Analog Incorporating (S)-Helix Pentapeptide Mimetic A 232b were prepared in 1:1 v:v acetonitrile/water at a concentration of 1 mg/mL. This stock solution was further diluted using 1:1 v:v acetonitrile/water to give a spiking solution with a nominal concentration of 50 μg/mL. For each compound, an aliquot (1485 μL) of rat plasma (maintained at 37° C.) was spiked with 15 μL of the spiking stock to give a nominal plasma concentration of 500 ng/mL. […] Samples were quenched by snap freezing in dry-ice. The concentration of the parent compound (Gal 231, Gal R 232a, Gal S 232b) was determined by LC/MS on a Micromass Quattro Premier triple-quadrupole instrument. The percentage of the parent compound remaining at each time point was calculated relative to the concentrations observed in the spiking control samples.
# Galanin GAL1 = biological target: T1, Galanin GAL1 (Homo sapiens, UniProt P47211); test: Galanin radioligand binding competitive assay, GAL1 (125I galanin porcine, recombinant HEK-293 cells); conditions: 0.012 nM 125I Galanin (porcine), human recombinant HEK-293; for inhibition at 0.01 µM: 10 nM peptide, read-out: GAL1 % inhib at 10 nM; for inhibition at 0.1 µM: 100 nM peptide, read-out: GAL1 % inhib at 100 nM
# T1 construct: expressed in transfected cells; host or cells: HEK-293
# T1 sequence (P47211 1-349): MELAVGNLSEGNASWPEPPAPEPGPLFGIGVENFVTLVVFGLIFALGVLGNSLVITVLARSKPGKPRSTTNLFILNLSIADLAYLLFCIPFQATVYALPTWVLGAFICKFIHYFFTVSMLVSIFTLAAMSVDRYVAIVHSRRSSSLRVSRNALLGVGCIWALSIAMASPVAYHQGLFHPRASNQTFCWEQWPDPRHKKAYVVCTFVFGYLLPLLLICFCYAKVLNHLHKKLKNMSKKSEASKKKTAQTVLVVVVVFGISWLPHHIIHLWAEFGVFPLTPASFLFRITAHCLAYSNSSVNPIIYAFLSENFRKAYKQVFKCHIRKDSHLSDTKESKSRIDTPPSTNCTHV
# Description: (§1) Galanin(1-16) Linear Reference Peptide 231, Galanin(1-16) Analog Incorporating (R)-Helix Pentapeptide Mimetic A 232a and Galanin(1-16) Analog Incorporating (S)-Helix Pentapeptide Mimetic A 232b were tested for binding affinity to the Galanin-1 and Galanin-2 receptors using a radioligand binding competitive assay (Heuillet E, Bouaiche Z, Menager J, Dugay P, Munoz N, Dubois H, Amiranoff B, Crespo A, Lavayre J, Blanchard J C, Doble A; Eur J. Pharmacol., 1994, 269, 139-147. Bloomquist B T, Beauchamp M R, Zhelnin L, Brown S E, Biochem Biophys Res Comm., 1998, 243, 474-479.) Human recombinant HEK-293 cells were used as the source of Galanin GAL1, and samples tested against competitive binding with 0.012 nM ^125I Galanin (porcine). DMSO was used as the vehicle, and the incubation buffer consisted of 10 mM HEPES-NaOH, pH 7.4, 1 mM EDTA, 0.5% BSA, 0.01% Bacitracin. Human recombinant CHO-K1 cells were used as the source of Galanin GAL2, and samples tested against competitive binding with 0.02 nM ^125I Galanin (human).
# Galanin GAL2 = biological target: T2, Galanin GAL2 (Homo sapiens, UniProt O43603); test: Galanin radioligand binding competitive assay, GAL2 (125I galanin human, recombinant CHO-K1 cells); conditions: 0.02 nM 125I Galanin (human); for inhibition at 0.1 µM: 100 nM peptide, read-out: GAL2 % inhib at 100 nM; for inhibition at 1 µM: 1 1000 nM peptide (so in the source), read-out: GAL2 % inhib at 1 1000 nM
# T2 construct: expressed in transfected cells; host or cells: CHO-K1
# T2 sequence (O43603 1-387): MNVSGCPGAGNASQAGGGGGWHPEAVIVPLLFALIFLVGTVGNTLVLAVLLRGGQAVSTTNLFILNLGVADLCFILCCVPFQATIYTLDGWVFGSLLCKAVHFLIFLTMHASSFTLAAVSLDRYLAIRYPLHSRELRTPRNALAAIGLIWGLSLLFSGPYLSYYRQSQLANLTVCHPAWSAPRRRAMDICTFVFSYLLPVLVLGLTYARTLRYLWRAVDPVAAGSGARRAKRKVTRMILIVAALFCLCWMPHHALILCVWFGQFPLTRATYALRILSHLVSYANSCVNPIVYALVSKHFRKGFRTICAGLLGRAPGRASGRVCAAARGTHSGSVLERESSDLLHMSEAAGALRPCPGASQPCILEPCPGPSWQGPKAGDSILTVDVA
# Description: as §1
# [4] = pH 7.4, 30% TFE in phosphate buffer, 5-75° C.
inhibition at 0.01 µM (Galanin GAL1),inhibition at 0.1 µM (Galanin GAL1),inhibition at 0.1 µM (Galanin GAL2),inhibition at 1 µM (Galanin GAL2),Time after spiking until concentration is below the limit of quantitation [3],"remaining at 2 min, 500 ng/mL ([3]; rat, plasma)","Percent remaining at end of 240 min incubation compared with 10 (linear Gal(1-16)) ([3]; rat, plasma, 4 h)",SMILES,"Thermal stability of secondary structure (variable temperature CD) [2, 4]",Thermal stability of secondary structure (variable temperature CD) ([2]; pH 7.4),other results
,,,,,,,"COC(=O)CNC(=O)[C@H](CC(C)C)NC(=O)[C@H](CC(C)C)NC(=O)[C@H](Cc1ccc(O)cc1)NC(=O)CNC(C)=O [Compound 230, Ac-GYLLG-OMe] (HELM PEPTIDE1{[ac].G.Y.L.L.G.[CO[*:1]]}$$$$V2.0)",,,Solubility in H2O [1]: not soluble in H2O
,,,,,,,"CC[C@H](C)[C@H](NC(=O)[C@H](CC(C)C)NC(=O)C1CCCN1C(=O)[C@H](CC(C)C)NC(=O)[C@@H](N)Cc1ccccc1)C(=O)NCC(=O)N[C@@H](CCCNC(=N)N)C(=O)NCC(=O)N[C@@H](CC(C)C)C(=O)N[C@@H](CO)C(=O)NCC(=O)N[C@@H](CC(C)C)C(=O)N[C@@H](CC(C)C)C(N)=O (stereo partly drawn) [Compound 234, FLPLIGRGLSGLL-NH2, reference compound]","increase in 222 nm absorbance as temperature increases, indicative of the helix unwinding",,
,,,,,,,CC[C@H](C)[C@H](NC(=O)[C@H](CC(C)C)NC(=O)C1CCCN1C(=O)[C@H](CC(C)C)NC(=O)[C@@H](N)Cc1ccccc1)C(=O)NCC(=O)N[C@@H](CCCNC(=N)N)C(=O)NC[C@@H]1CCN([C@@H](CC(C)C)C(=O)N[C@@H](CC(C)C)C(N)=O)C(=O)CNC(=O)[C@H](CO)NC(=O)[C@H](CC(C)C)N1 (stereo partly drawn) [Compound 235b],,remarkable thermal stability,
8%,37%,6%,36%,≤ 30 min,50%,significantly higher,CC(C)C[C@@H]1NC(=O)[C@H](Cc2ccc(O)cc2)N[C@@H](CNC(=O)[C@H](C)NC(=O)[C@H](CO)NC(=O)[C@H](CC(N)=O)NC(=O)[C@H](CC(C)C)NC(=O)[C@@H](NC(=O)[C@H](Cc2c[nH]c3ccccc23)NC(=O)CN)[C@@H](C)O)CCN(CC(=O)N2CCC[C@H]2C(=O)N[C@@H](CC2C=NC=N2)C(=O)N[C@@H](C)C(=O)N[C@H](C(N)=O)C(C)C)C(=O)[C@H](CC(C)C)NC1=O (stereo partly drawn) [Gal R 232a],,,"% Compound remaining at 4° C. ([3]; rat, plasma, 4 h): 31.3%"
2%,18%,2%,6%,≤ 30 min,44.8%,significantly higher,CC(C)C[C@@H]1NC(=O)[C@H](Cc2ccc(O)cc2)N[C@H](CNC(=O)[C@H](C)NC(=O)[C@H](CO)NC(=O)[C@H](CC(N)=O)NC(=O)[C@H](CC(C)C)NC(=O)[C@@H](NC(=O)[C@H](Cc2c[nH]c3ccccc23)NC(=O)CN)[C@@H](C)O)CCN(CC(=O)N2CCC[C@H]2C(=O)N[C@@H](CC2C=NC=N2)C(=O)N[C@@H](C)C(=O)N[C@H](C(N)=O)C(C)C)C(=O)[C@H](CC(C)C)NC1=O (stereo partly drawn) [Gal S 232b],,excellent structural stability at elevated temperatures,"remaining at 4 h, 500 ng/mL ([3]; rat, plasma): 31.3%"

SMILES,inhibition at 0.01 µM (Galanin GAL1),inhibition at 0.1 µM (Galanin GAL1),inhibition at 0.1 µM (Galanin GAL2),inhibition at 1 µM (Galanin GAL2),Time after spiking until concentration is below the limit of quantitation [3],"remaining at 2 min, 500 ng/mL ([3]; rat, plasma)","Percent remaining at end of 240 min incubation compared with 10 (linear Gal(1-16)) ([3]; rat, plasma, 4 h)","Thermal stability of secondary structure (variable temperature CD) [2, 4]",Thermal stability of secondary structure (variable temperature CD) ([2]; pH 7.4),other results
"CC(C)C[C@H](NC(=O)[C@H](CC(C)C)NC(=O)[C@H](Cc1ccc(O)cc1)NC(=O)CNC(=O)[C@H](C)NC(=O)[C@H](CO)NC(=O)[C@H](CC(N)=O)NC(=O)[C@H](CC(C)C)NC(=O)[C@@H](NC(=O)[C@H](Cc1c[nH]c2ccccc12)NC(=O)CN)[C@@H](C)O)C(=O)NCC(=O)N1CCC[C@H]1C(=O)N[C@@H](CC1C=NC=N1)C(=O)N[C@@H](C)C(=O)N[C@H](C(N)=O)C(C)C (stereo partly drawn) [Gal (1-16) 231, GWTLNSAGYLLGPHAV-NH2, reference compound]",85%,96%,92%,101%,,,,decreased peptide secondary structure with increased temperature,,"remaining at 4 h, 500 ng/mL ([3]; rat plasma, 4° C., 240 min, read-out: % Compound remaining at 4° C.): 6.2%; remaining at 2 min, 500 ng/mL ([3]; rat plasma, 37° C., 2 min, nominal 500 ng/mL, read-out: % Compound remaining at 37° C.): 30.2%"
